According to PubChem BioAssay (NCI):
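Interpolation was linear, between the two tested concentrations surrounding the appropriate level; five concentrations were tested over 48 hours in 96-well plates. TGI is the concentration that stops growth completely.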

Legend:
Assay in all cases: growth of human tumour cells (NCI), 48 h
[1] = test system: 786-0 renal
[2] = test system: A549 NSCLC
[3] = test system: CAKI-1 renal
[4] = test system: CCRF-CEM leukemia
[5] = test system: COLO 205 colon
[6] = test system: DU-145 prostate
[7] = test system: EKVX NSCLC
[8] = test system: HCC-2998 colon
[9] = test system: HCT-15 colon
[10] = test system: HL-60(TB) leukemia
[11] = test system: HOP-62 NSCLC
[12] = test system: HOP-92 NSCLC
[13] = test system: HT29 colon
[14] = test system: IGROV1 ovarian
[15] = test system: K-562 leukemia
[16] = test system: KM12 colon
[17] = test system: LOX IMVI melanoma
[18] = test system: M14 melanoma
[19] = test system: MALME-3M melanoma
[20] = test system: MCF7 breast
[21] = test system: MDA-MB-231 breast
[22] = test system: MDA-MB-435
[23] = test system: MOLT-4 leukemia
[24] = test system: NCI-H23 lung
[25] = test system: OVCAR-4 ovarian
[26] = test system: OVCAR-8 ovarian
[27] = test system: PC-3 prostate
[28] = test system: RPMI-8226 leukemia
[29] = test system: RXF 393 renal
[30] = test system: SF-268 CNS
[31] = test system: SF-295 CNS
[32] = test system: SK-MEL-28 melanoma
[33] = test system: SK-MEL-5 melanoma
[34] = test system: SK-OV-3 ovarian
[35] = test system: SN12C renal
[36] = test system: SNB-75 CNS
[37] = test system: SR leukemia
[38] = test system: SW-620 colon
[39] = test system: T-47D breast
[40] = test system: TK-10 renal
[41] = test system: UACC-257 melanoma
[42] = test system: UACC-62 melanoma

CCC(=O)OC1=C(c2ccccc2)Sc2ccc(Cl)cc2-n2cccc21
TGI [1]: > 10 µM
TGI [2]: > 10 µM
TGI [3]: > 10 µM
TGI [4]: > 10 µM
TGI [5]: > 10 µM
TGI [6]: > 10 µM
TGI [7]: > 10 µM
TGI [8]: > 10 µM
TGI [9]: > 10 µM
TGI [10]: > 10 µM
TGI [11]: > 10 µM
TGI [12]: > 10 µM
TGI [13]: > 10 µM
TGI [14]: > 10 µM
TGI [15]: > 10 µM
TGI [16]: > 10 µM
TGI [17]: > 10 µM
TGI [18]: > 10 µM
TGI [19]: > 10 µM
TGI [20]: > 10 µM
TGI [21]: > 10 µM
TGI [22]: 5.28 µM
TGI [23]: > 10 µM
TGI [24]: > 10 µM
TGI [25]: > 10 µM
TGI [26]: > 10 µM
TGI [27]: > 10 µM
TGI [28]: > 10 µM
TGI [29]: > 10 µM
TGI [30]: > 10 µM
TGI [31]: > 10 µM
TGI [32]: > 10 µM
TGI [33]: > 10 µM
TGI [34]: > 10 µM
TGI [35]: > 10 µM
TGI [36]: > 10 µM
TGI [37]: > 10 µM
TGI [38]: > 10 µM
TGI [39]: > 10 µM
TGI [40]: > 10 µM
TGI [41]: > 10 µM
TGI [42]: > 10 µM
